Measurements reported in patent US20210196731A1, “COMPOSITIONS AND METHODS FOR TREATING OCULAR INFLAMMATION AND OCULAR SCARRING” (priority 2018, published 2021).

Columns and labels:
Format in all cases: cell-based, human
HTCFs = experiment: Lipid Mediator Secretion Assay II (ASA or APHS with and without gentamicin, LC-MS/MS); settings: for CytoM1+TGFb1 induced COX2 activity, as measured through PGE2 and kPGF1a secretion / secretion of acetylated-COX2 products, as measured through 5-HETE and 15-HETE secretion: ASA 500 or 1000 μg/ml, with or without gentamicin 250 or 500 μg/ml, 6-48 hrs; for secretion of acetylated-COX2 products, as measured through 5-HETE and 15-HETE secretion: CytoM1+TGFb1
Experimental: To this end, as before, multiple primary HTCF cell lines were cultured in DMEM w/10% FBS in 6-well culture plates, incubated at 37° C. and 5% CO2, until 90% confluent. The culture media was removed, wells washed with PBS, and then fresh DMEM w/0% FBS was added. After 24 hrs of serum starvation, fresh DMEM w/0% FBS was added, this time containing a physiologically relevant inflammation/wound healing induction mixture (1 ng/ml each of: IL-1b, TNFa, IFNγ, TGFb). After 12 hrs incubation, the induction media was removed, the wells were washed with PBS and fresh DMEM w/0% FBS was added containing one of ten experimental treatments for an incubation period of 48 hrs: 1) non-induced control (NIC: received DMEM w/0% FBS instead of the induction media), and 2) CytoM1+TGFB1 (DMEM w/0% FBS and 1 ng/ml each of: IL-1b, TNFa, IFNγ, TGFb), and 3) CytoM1/TGFB1/Gent250 (DMEM w/0% FBS, 1 ng/ml each of TGFB1, TGFB2, VEGF, CCN2 and 250 μg/ml gentamicin), and 4) CytoM1/TGFB1/Gent500 (DMEM w/0% FBS, 1 ng/ml each of TGFB1, TGFB2, VEGF, CCN2 and 500 μg/ml gentamicin), and 5) CytoM1/TGFB1/ASA500 (DMEM w/0% FBS, 1 ng/ml each of TGFB1, TGFB2, VEGF, CCN2, and 500 μg/ml ASA), and 6) CytoM1/TGFB1/ASA500/Gent250 (DMEM w/0% FBS, 1 ng/ml each of TGFB1, TGFB2, VEGF, CCN2, 500 μg/ml ASA and 250 μg/ml gentamicin), and 7) CytoM1/TGFB1/ASA1000 (DMEM w/0% FBS, 1 ng/ml each of TGFB1, TGFB2, VEGF, CCN2 and 1000 μg/ml ASA), and 8) CytoM1/TGFB1/ASA1000/Gent500 (DMEM w/0% FBS, 1 ng/ml each of TGFB1, TGFB2, VEGF, CCN2, 1000 μg/ml ASA, and 500 μg/ml gentamicin), and 9) CytoM1/TGFB1/APHS12 (DMEM w/0% FBS, 1 ng/ml each of TGFB1, TGFB2, VEGF, CCN2 and 12 μg/ml o-(acetoxyphenyl)hept-2-ynyl sulfide (APHS), and 10) CytoM1/TGFB1/APHS12/Gent250 (DMEM w/0% FBS, 1 ng/ml each of TGFB1, TGFB2, VEGF, CCN2, 12 μg/ml o-(acetoxyphenyl)hept-2-ynyl sulfide (APHS) and 250 μg/ml gentamicin). At 6, 12, 24 and 48 hrs after addition of the experimental treatments, 250 ul of supernatant was removed from each well, replaced with 250 ul of fresh DMEM w/0% FBS, and stored at −80° C. for subsequent LC-MS/MS analysis. After 48 hrs, the wells were washed with ice cold PBS three times and total cellular protein from the HTCF monolayer was collected for quantification and subsequent western blot analyses. The absolute quantity of protein within each culture well's HTCF monolayer was used as a means to standardize the relative secretion of lipid mediators by HTCFs into the culture well's supernatant.
This is a well-established method to determine the relative activity of cyclooxygenase, acetyl-COX2 and lipoxygenase biosynthetic pathways. In brief, the ratios of the integrated areas of the chromatographic peaks corresponding to each analyte and the integrated areas of the peaks corresponding to each analyte's internal standard (with known absolute quantity) are used to determine the relative quantity of each analyte in a given sample. After supernatant sample collection, 250 ul of methanol containing 100 μg of each deuterated internal standard was added. Samples were then vigorously vortexed and centrifuged at 10,000 g for 10 min before loading onto solid-phase extraction cartridges (Strata-X 33 um Polymeric Reversed Phase, 10 mg, Phenomenex 8B-S100-AAK), that were previously activated with 2 ml methanol and rinsed with 2 ml water. […] After washing with 5 ml water, extracts were eluted with 1 ml methanol. Solvent was then evaporated under vacuum in a SpeedVac centrifuge, and the extract was resuspended in 100 ul acetonitrile/water 60:40 (v/v). An aliquot of 20 ul was injected into the LC-MS/MS system for analysis. […] A Sciex Triple Quad 6500+ mass spectrometer with multiple reaction monitoring was used in negative ion mode. The chromatographic profile of the ion count for each m/z transition was monitored, and the area under the peaks (ion intensity vs elution time) was integrated using commercial software (MultiQuant, Sciex).

collagen 1 = experiment: Western blot of HTCF protein lysate, collagen 1; settings: ASA 500 or 1000 μg/ml, APHS 12 μg/ml, with or without gentamicin 250 or 500 μg/ml, 48 hrs
Experimental: (§1) Cells were lysed in lysis buffer (PhosphoSafe Extraction Reagent, Novagen) containing a protease inhibitor cocktail (P2714, Sigma-Aldrich). Crude protein lysate was quantified using a Pierce BCA protein assay kit (ThermoFisher, Mississauga, ON) and 10 ug from each sample was resolved using a Novex WedgeWell 4-20% tris-glycine gel (Invitrogen). Using an iBlot Gel Transfer Device (IB1001, Invitrogen), the separated protein was transferred to a nitrocellulose membrane (1B301001, iBlot Transfer Stack, Invitrogen) which was then blocked with 5% (w/v) bovine serum albumin (Sigma-Aldrich) in Tris buffered saline (TBST) for 1 hour at room temperature. The membranes were incubated overnight at 4° C. with primary antibody diluted in TBST containing 5% BSA (w/vol). […] Visualization was accomplished by applying WesternBright Quantum chemiluminescent reagent (Advansta, Inc.), with GAPDH used as a protein loading control. Imaging and relative densiometric quantification was accomplished using a ChemiDoc MP System (Bio-Rad Laboratories, Inc.) connected to Image Lab (Version 6, Bio-Rad Laboratories, Inc.).

pSMAD2/3 = experiment: Western blot of HTCF protein lysate, pSMAD2/3; settings: ASA 500 or 1000 μg/ml, APHS 12 μg/ml, 48 hrs; for ratio of pSMAD2/3 to tSMAD2/3 (proportion of active to total SMAD2/3): AHGFs; for AHGF-induced levels of pSMAD2/3: with or without gentamicin 250 or 500 μg/ml
Experimental: as §1

Row | SMILES | net enzymatic activity, acetylated-COX2 vs COX2 production of lipid mediators (HTCFs; APHS 12 μg/ml, alone or with gentamicin 250 μg/ml, vs inf. cytokines control) | CytoM1+TGFb1 induced COX2 activity, as measured through PGE2 and kPGF1a secretion (HTCFs; APHS 12 μg/ml) | secretion of acetylated-COX2 products, as measured through 5-HETE and 15-HETE secretion (HTCFs; APHS 12 μg/ml) | AHGF-induced expression of collagen 1 (collagen 1) | ratio of pSMAD2/3 to tSMAD2/3 (proportion of active to total SMAD2/3) (pSMAD2/3) | AHGF-induced levels of pSMAD2/3 (pSMAD2/3) | relative amount of COX2 products relative to inf. cytokines control (HTCFs; ASA 500 μg/ml) | balance of enzymatic activity (COX2:acetyl-COX2 ratio) (HTCFs; ASA 500 μg/ml, alone or with gentamicin 250) | relative amount of COX2 products relative to inf. cytokines control (HTCFs; ASA 1000 μg/ml) | balance of enzymatic activity (COX2:acetyl-COX2 ratio) (HTCFs; ASA 1000 μg/ml, alone or with gentamicin 500)
1 | CCCCC#CCSc1ccccc1OC(C)=O [APHS, o-(acetoxyphenyl)hept-2-ynyl sulfide] | significantly shift the net enzymatic activity toward net acetylated-COX2 production of lipid mediators | significantly inhibit COX2 activity | profoundly and significantly increased the secretion of acetylated-COX2 products relative to all other treatment groups | significantly reduced | significantly reduce the proportion of active to total SMAD2/3 from AHGF-induced levels | significantly reduced |  |  |  | 
2 | CC(=O)Oc1ccccc1C(=O)O [ASA, acetylsalicylic acid] |  | significantly inhibit CytoM1+TGFb1 induced COX2 activity | either no effect or a significantly smaller effect on acetylated-COX2 products relative to the ASA/Gent experimental group | significantly reduced | significantly reduce the proportion of active to total SMAD2/3 from AHGF-induced levels | significantly reduced | significantly reduce the relative amount of COX2 products relative to the inf. cytokines control group | positive values for the COX2:acetyl-COX2 ratio at all timepoints | significantly reduce the relative amount of COX2 products relative to the inf. cytokines control group | unable to significantly shift the balance of enzymatic activity toward net actyl-COX2 production relative to COX2 production
